“Also recorded” adds a separate entry of the source. Read-outs that look alike come from different tables or passages of the source.
Columns and labels:
[1] = test system: Mice Having Their Nerves Damaged by Mercurialism; assay: T-shaped labyrinth learning and memory in mice damaged by methylmercuric chloride; format: in vivo; details: for number of mice that reached the standard / number of mice subjected to test: 40 mg/kg,i.p./day for 10 days after MMC 6 mg/kg/day; for average time required for running into the safety area: 40 mg/kg,i.p./day after MMC, average ± S.D.
Procedure: Male Balb/c mice of 7-weeks age were pre-trained in a T-shaped labylinth 3 times a week so that they learned to go straight from the starting area to the safety area. Then, a group of mice was orally administered methylmercuric chloride (hereinafter referred to as MMC) at a dose of 6 mg/kg/day for 7 days after the mice had reached 8-weeks age. A control group of mice was administered 0.l ml/l0 g/day of saline. The day after the completion of administration of MMC, the compound (I) of the invention was intraperitoneally administered at a dose of 40 mg/kg/day for l0 days. From the 23rd day, the training in the T-shape labylinth was restarted, and the running actions of the mice were observed. At the 7th day (29th day from the beginning of the experiment) and 8th day (30th day from the beginning of the experiment) from the re-starting of the training, the number of mice of each group, that could be subjected to test, was counted; and the number of mice that reached the standard (running into the safety area within 5 seconds) for 8 or more times per ten times trials was counted. In the following Table 6, the number of mice subjected to test is shown as the denominator, and the number of mice that reached the standard is shown as the numerator. Meanwhile, the decrease in number of mice was caused by death due to poisoning from MMC. Also shown in Table 6 are the average times (second) ± S.D. […] required for running into the safety area.

[2] = test system: neuroblastoma cell Neuro2a; assay: Effect on the neuroblastoma cell Neuro2a (formation and growth of axis-cylinder process); format: cell-based; details: for Length of Axis-cylinder Process / Number of Axis-cylinder Process: average ± S.E.
Procedure: The nervous cell used in the test was neuroblastoma cell Neuro2a which is readily available and can be cultured in a relatively simple manner.
Neuro2a was floated on a culture medium containing fetal cattle serum (hereinafter referred to as FCS), the culture medium consisting of 90% of Dubecco's Modified Eagle's Medium (hereinafter referred to as MEM) and l0% of FCS and added with l00 U/ml of penicillin G and l00 µg/ml of streptomycin sulfate, and cultured in a carbon dioxide cultivator at 37°C in an air containing 5% of carbon dioxide. The containers used were 60 mm polystyrene dishes, and each of the containers was incubated with l to 2 × l0⁴ cells followed by culturing for 48 hours prior to the test. […] After the lapse of 24 hours and 48 hours, the increase in cells formed with axis-cylinder process, the increase in number of axis-cylinder processes and the elongation of the length of the axis-cylinder process were measured.
The test was conducted while using three dishes for each concentration of each test material.

male ddy mice = assay: Acute toxicity test; format: in vivo; details: result in words
Procedure: (§1) The compound (I) was administered through two administration routes, i.e. orally and intravenous injection, to the groups each consisting of five male ddy mice, while increasing the dosage amounts little by little.
(§2) From the time immediately after the administration to the lapse of 7 days, the general syndrome and death of the mice were inspected. The medial lethal dose (LD₅₀) was calculated, through the Probit method, from the mortality rate at the 7th day from the beginning of administration. LD₅₀ = 58l mg/kg (through intraveous injection) 5000 mg/kg (through oral administration)

Acute toxicity test = format: in vivo; details: mouse, in vivo, mortality at the 7th day, Probit method, read-out: LD₅₀
Procedure: as §1, §2

[3] = in consideration of the molecular weights, 48 hour cultivation

Question: What does the source list for `CCCCCCCCCCCCCCOCC(COC1(C(=O)O)CC(O)C(NC(C)=O)C(C(O)C(O)CO)O1)OCCCCCCCCCCCCCC` (centres unmarked) [Compound (I)]?
Answer: number of mice that reached the standard / number of mice subjected to test ([1]; 7th Day of re-started training, standard: safety area within 5 seconds in 8 or more of ten trials): 4/6; average time required for running into the safety area ([1]; 7th Day): 2.5 ± 0.8 s; number of mice that reached the standard / number of mice subjected to test ([1]; 8th Day of re-started training): 5/6; average time required for running into the safety area ([1]; 8th Day): 3.1 ± 0.7 s; remedy and restoration of learning and memory ability ([1]; result in words): had the effect of remedying and restoring the learning and memory ability; Number of Cells Formed with Axis-cylinder Process ([2]; 24 hours, 0.01 µg/ml): 184; Ratio of Cells Formed with Axis-cylinder Process ([2]; 24 hours, 0.01 µg/ml): 44.7%; Total Number of Cells ([2]; 24 hours, 0.01 µg/ml): 412; Length of Axis-cylinder Process ([2]; 24 hours, 0.01 µg/ml): 107.5 ± 4.56 µm/cell; Number of Axis-cylinder Process ([2]; 24 hours, 0.01 µg/ml): 1.2 ± 0.03 per cell; Number of Cells Formed with Axis-cylinder Process ([2]; 24 hours, 0.1 µg/ml): 188; Ratio of Cells Formed with Axis-cylinder Process ([2]; 24 hours, 0.1 µg/ml): 50.9%; Total Number of Cells ([2]; 24 hours, 0.1 µg/ml): 369; Length of Axis-cylinder Process ([2]; 24 hours, 0.1 µg/ml): 111.4 ± 4.60 µm/cell; Number of Axis-cylinder Process ([2]; 24 hours, 0.1 µg/ml): 1.2 ± 0.03 per cell; Number of Cells Formed with Axis-cylinder Process ([2]; 24 hours, 1 µg/ml): 214; Ratio of Cells Formed with Axis-cylinder Process ([2]; 24 hours, 1 µg/ml): 63.5%; Total Number of Cells ([2]; 24 hours, 1 µg/ml): 337; Length of Axis-cylinder Process ([2]; 24 hours, 1 µg/ml): 158.7 ± 6.94 µm/cell; Number of Axis-cylinder Process ([2]; 24 hours, 1 µg/ml): 1.0 ± 0.02 per cell; Number of Cells Formed with Axis-cylinder Process ([2]; 24 hours, 10 µg/ml): U.C.; Total Number of Cells ([2]; 24 hours, 10 µg/ml): U.C.; Length of Axis-cylinder Process ([2]; 24 hours, 10 µg/ml): U.C.; Number of Axis-cylinder Process ([2]; 24 hours, 10 µg/ml): U.C.; Number of Cells Formed with Axis-cylinder Process ([2]; 48 hours, 0.01 µg/ml): 249; Ratio of Cells Formed with Axis-cylinder Process ([2]; 48 hours, 0.01 µg/ml): 50.7%; Total Number of Cells ([2]; 48 hours, 0.01 µg/ml): 491; Length of Axis-cylinder Process ([2]; 48 hours, 0.01 µg/ml): 117.1 ± 4.94 µm/cell; Number of Axis-cylinder Process ([2]; 48 hours, 0.01 µg/ml): 1.2 ± 0.03 per cell; Number of Cells Formed with Axis-cylinder Process ([2]; 48 hours, 0.1 µg/ml): 258; Ratio of Cells Formed with Axis-cylinder Process ([2]; 48 hours, 0.1 µg/ml): 55.6%; Total Number of Cells ([2]; 48 hours, 0.1 µg/ml): 464; Length of Axis-cylinder Process ([2]; 48 hours, 0.1 µg/ml): 128.8 ± 5.71 µm/cell; Number of Axis-cylinder Process ([2]; 48 hours, 0.1 µg/ml): 1.2 ± 0.03 per cell; Number of Cells Formed with Axis-cylinder Process ([2]; 48 hours, 1 µg/ml): 248; Ratio of Cells Formed with Axis-cylinder Process ([2]; 48 hours, 1 µg/ml): 61.4%; Total Number of Cells ([2]; 48 hours, 1 µg/ml): 404; Length of Axis-cylinder Process ([2]; 48 hours, 1 µg/ml): 154.7 ± 5.99 µm/cell; Number of Axis-cylinder Process ([2]; 48 hours, 1 µg/ml): 1.1 ± 0.03 per cell; Number of Cells Formed with Axis-cylinder Process ([2]; 48 hours, 10 µg/ml): U.C.; Total Number of Cells ([2]; 48 hours, 10 µg/ml): U.C.; Length of Axis-cylinder Process ([2]; 48 hours, 10 µg/ml): U.C.; Number of Axis-cylinder Process ([2]; 48 hours, 10 µg/ml): 1 U.C.; minimal effective concentration ([2]; Mus musculus, N2a, 48 hour cultivation): 0.01 µg/mL; activity relative to GM₁ [2, 3]: 500 times; activity relative to GQ1b [2, 3]: 300 times; effect on growth of the axis-cylinder process ([2]; result in words, compared with the control group): significant effect of promoting the growth of the axis-cylinder process; also recorded: extremely high activity for promoting growth or elongation of axis-cylinder process; toxicity (male ddy mice): extremely low toxicity; LD50 at 168 h (Acute toxicity test; intravenous injection): 581 mg/kg; LD50 at 168 h (Acute toxicity test; oral administration): 5000 mg/kg

Reference: patent EP0260606A2, “Medicament for curing neurotic disturbance or disorder comprising sialocylglycerolipid” (MECT CORPORATION, priority 1986, dated 1988)
